Results: patent US20040197341A1, “Therapeutic process for p. aeruginosa infections using macrolide antibiotics” (priority 2004, published 2004)

Assays:
[1] = test system: P. aeruginosa strain PAO1; assay: Cell growth of P. aeruginosa PAO1 in LB medium (turbidity at 660 nm) and SDS-PAGE of total protein extracts; format: cell-based
Description: P. aeruginosa strain PAO1 was grown for a total of 10 hours on Luria-Bertani (LB) medium containing 2, 3, 4 and 5 μg/ml of azithromycin, respectively. The cell growth in the media was measured by optical absorbance measurements (turbidity) at 660 nm in intervals of 2 h.

[2] = test system: P. aeruginosa strain PAO1; assay: Growth curves (optical density at 660 nm) in the elastase production experiment; format: cell-based; details: 2 μg/ml, broth medium, 16 hours
Description: P. aeruginosa strain PAO1 was grown over a total of 16 hours in broth medium either without azithromycin or with 2 μg/ml azithromycin. Samples of the supernatants of both cultures were taken in intervals of 4 hours and the activity of elastase in the samples was determined using elastin Congo red assays (Pearson, J. P., Pesci, E. C., Iglewski, B. H., J. Bacteriol. 1997, 179, 5756-5767). The measured elastase activity was plotted against the sampling times, giving FIG. 1b).

[3] = test system: P. aeruginosa strain PAO1; assay: Qualitative rhamnolipid plate assay on M9-based agar with azithromycin gradient; format: cell-based; details: gradient from 0 μg/ml to 20 μg/ml in agar
Description: P. aeruginosa strain PAO1 was grown on M9-based agar plates (Siegmund, I., Wagner, F., Biotechnol. Tech. 1991, 5, 265-268) into which a gradient of azithromycin from 0 μg/ml to 20 μg/ml was incorporated. The qualitative Rhamnolipid® plate assay was used.

rhlAB operon = assay: rhlA'-lacZ reporter (pECP60) expression of the rhlAB operon, beta-Gal activity, with growth curves; format: cell-based, P. aeruginosa; details: 2 μg/ml, LB medium, 16 hours
Description: P. aeruginosa strain PAO1, harbouring the fusion gene pECP60 of rhlA′ with the lacZ reporter (Pesci, E. C., Pearson, J. P., Seed, P. C., Iglewski, B. H., J. Bacteriol. 1997, 179, 3127-3132), was grown for 16 hours in LB medium either in the absence or presence of 2 μg/ml azithromycin and the activity of β-galactosidase (β-Gal) (Miller, J. H., “Experiments in Molecular Genetics”, p. 352-355. Cold Spring Harbor Laboratory, Cold Spring Harbor, N.Y.) was measured in both cultures in intervals of 4 hours. The results of 6 experiments (mean±SD) for each culture were plotted against sampling time (FIG. 1c).

[4] = test system: lasR, rhlR, lasI and rhlI genes; assay: lacZ reporter fusions of lasR, rhlR, lasI, rhlI, beta-Gal activity; format: cell-based, P. aeruginosa; details: 2 μg/ml azithromycin, 10 h
Description: Cultures of P. aeruginosa strain PAO1, harbouring the fusion gene of lasR′ with lacZ reporter (pPCS10011; Pesci, E. C., Pearson, J. P., Seed, P. C., Iglewski, B. H., J. Bacteriol. 1997, 179, 3127-3132), or the fusion gene of rhlR′ with lacZ (pPCS1002; ibid.), or the fusion gene of lasI′ with lacZ (pPCS223; Van Delden, C., Pesci, E. C., Pearson, J. P., Iglewski, B. H., Infect. Immun. 1998, 66, 4499-4502), or the fusion gene of rhlI′ with lacZ (pLPRI; ibid.) were grown for 10 h in broth medium either in the absence or presence of 2 μg/ml azithromycin and the β-Gal activity was then determined. The results for lasR and rhlR are shown in FIG. 2a) and for lasI and rhlI in FIG. 2b) (plotted bars are the mean ±SD of 6 individual experiments each).

3-oxo-C12-HSL = assay: Production of 3-oxo-C12-HSL autoinducer, specific bioassay of ethyl acetate extracts of supernatants; format: cell-based, P. aeruginosa; details: 2 μg/ml, LB medium, 12 hours, strain PAO1
Description: (§1) P. aeruginosa strain PAO1 was grown in LB medium for 12 hours either in the absence or presence of 2 μg/ml of azithromycin. The formed 3-oxo-C12—HSL and C4—HSL autoinducers were extracted from the supernatants of both cultures with ethyl acetate and their respective concentrations were measured using specific bioassays (Pearson, J. P., Pesci, E. C., Iglewski, B. H., J. Bacteriol. 1997, 179, 3127-3132; Seed, P. C, Passador, L., Iglewski, B. H., J. Bacteriol. 1995, 177, 654-659). The results are plotted in FIG. 3 a). In the presence of the macrolide the concentrations of 3-oxo-C12-HSL and C4-HSL were reduced by 94 and 72%, respectively.

C4-HSL = assay: Production of C4-HSL autoinducer, specific bioassay of ethyl acetate extracts of supernatants; format: cell-based, P. aeruginosa; details: 2 μg/ml, LB medium, 12 hours, strain PAO1
Description: as §1

[5] = in vivo; cited from earlier work
C4-HSL autoinducer = details: 50 μg of erythromycin/ml; cited from earlier work
P. aeruginosa strains = details: clinical trials; cited from earlier work
[6] = 2 μg of azithromycin/ml, LB medium, strain PAO1

CC[C@H]1OC(=O)[C@H](C)[C@@H](O[C@H]2C[C@@](C)(OC)[C@@H](O)[C@H](C)O2)[C@H](C)[C@@H](O[C@@H]2O[C@H](C)C[C@H](N(C)C)[C@H]2O)[C@](C)(O)C[C@@H](C)CN(C)[C@H](C)[C@@H](O)[C@]1(C)O [azithromycin]
effect on exponential growth [1, 6]: slightly affected | effect on the stationary growth phase [1, 6]: no effect | inhibition of PAO1 ([1]; in vitro concentration 2 μg/ml): does not inhibit PAO1 | influence on the growth (optical density at 660 nm) [2]: no significant influence | growth on rhamnolipid plates [3]: without a parallel drop in growth | production of rhamnolipids [3]: progressively decreased | influence on the growth (optical density at 660 nm) (rhlAB operon): no significant influence | restoration of lasI expression by co-addition of exogenous autoinducers ([4]; 10 μM exogenous autoinducers): could not restore | effect on lasR and rhlR expression on co-adding exogenous 3-oxo-C12-HSL and C4-HSL ([4]; autoinducers 10 μM each): almost completely compensated | reduction of 3-oxo-C12-HSL concentration (3-oxo-C12-HSL): 94% | reduction of C4-HSL concentration (C4-HSL): 72% | distribution between body tissues and serum/plasma [5]: tends to accumulate in body tissues

CC[C@H]1OC(=O)[C@H](C)[C@@H](O[C@H]2C[C@@](C)(OC)[C@@H](O)[C@H](C)O2)[C@H](C)[C@@H](O[C@@H]2O[C@H](C)C[C@H](N(C)C)[C@H]2O)[C@](C)(O)C[C@@H](C)C(=O)[C@H](C)[C@@H](O)[C@]1(C)O [erythromycin]
autoinducer production (C4-HSL autoinducer): reduction

CC[C@H]1OC(=O)[C@H](C)[C@@H](O[C@H]2C[C@@](C)(OC)[C@@H](O)[C@H](C)O2)[C@H](C)[C@@H](O[C@@H]2O[C@H](C)C[C@H](N(C)C)[C@H]2O)[C@](C)(OC)C[C@@H](C)C(=O)[C@H](C)[C@@H](O)[C@]1(C)O [clarithromycin]
effect on the viability of the microorganism (P. aeruginosa strains): no effect
